{"source": "patent EP0256125A1", "about": "“MEANS FOR PREVENTING MICROBIOLOGICAL OVERGROWING OF HARD SURFACE” (priority 1985, dated 1987)", "key": {"[1]": {"assay": "Storage stability (qualitative)", "type": "physicochemical", "conditions": "result in words"}, "[2]": {"system": "p.Bacillus", "assay": "Bactericidal activity, growth on agar medium", "type": "cell-based", "conditions": "37°C, 5 Tage", "procedure": "(§1) Die bakterizide Aktivität des Kalium N-(vinyloxyethyl)-dithiocarbamats gegenüber den Bakterien, die von der Oberfläche von Wänden und Decken der Produktionsräume von Brauereien und Fabriken zur Herstellunq von alkoholfreien Getränken ausgeschieden wurden und die zu p.p.Bacillus, Micrococcus, Pseudomonas, Escherichiae gehören, wurde geprüft.\n(§2) Es wurden wäßrige Lösungen des genannten Stoffes verschiedener Konzentration hergestellt, die so berechnet wurde, daß bei Einführung von 1 ml der Lösung in 25 ml geschmolzenen agarisierten Nährboden (45-50°C) die Konzentration des Stoffes im Nährboden von 0,003 bis 0,5% betrug. In 18 bis 24 Stunden wurde auf die Oberfläche des Nährbodens 0,1 ml der wäßrigen Suspension der eintägigen reinen Bakterienkulturen aufgetragen, die am Fleisch-Pepton-Agar gezüchtet wurden. Die Suspension wurde gleichmäßig verteilt. In Kontrollschalen wurden 0,1 ml Wasser auf der Oberfläche des Närhbodens verteilt.\n(§3) Die Inkubation führte man bei einer Temperatur von 37°C während 5 Tage durch.\n(§4) Die effektive Wirkung des Stoffes wurde nach dem Auftreten des Bakterienwachstums an der Oberfläche des Nährbodens bewertet."}, "[3]": {"system": "p. Escherichiae", "assay": "Bactericidal activity, growth on agar medium", "type": "cell-based", "conditions": "37°C, 5 Tage", "procedure": "as §1, §2, §3, §4"}, "[4]": {"system": "p.Micrococcus", "assay": "Bactericidal activity, growth on agar medium", "type": "cell-based", "conditions": "37°C, 5 Tage", "procedure": "as §1, §2, §3, §4"}, "[5]": {"system": "p.Pseudomonas", "assay": "Bactericidal activity, growth on agar medium", "type": "cell-based", "conditions": "37°C, 5 Tage", "procedure": "as §1, §2, §3, §4"}, "[6]": {"assay": "Solubility in solvents (qualitative)"}, "[7]": {"system": "Bakterien", "assay": "Bactericidal activity, summary over all tested bacteria", "type": "cell-based", "procedure": "as §1, §2, §3, §4"}, "[8]": {"assay": "Acute toxicity in white mice", "conditions": "mouse, in vivo, po"}, "[9]": {"system": "Cladosporium resinae", "assay": "Fungicidal activity, inhibition of mycelium growth on wort agar", "type": "cell-based", "conditions": "Amorphotheca resinae, 120 h, read-out: Hemmung des Myzeliums am 5. Tag des Wachstums, Cladosporium resinae", "description": "(§5) Man prüfte die funguzide Aktivität von Zink-bis-(N-vi- nyloxyethyl)dithiocarbamat gegenüber den reinen Pilzkulturen: Gladosporium resinae, Cladosporium cladosporioides, Acremonium corvum, Acremonium charticola, Penicillium charlesii Smith, Walrotiela subiculesa, Geotrichum candidum Link, Oidium, Penicillium crysogenum. Die genannten Pilze wurden von den Oberflächen der Wände und Decken von Bierbrauereien und Werken für die Herstellung von alkoholfreien Getränken ausgeschieden.\n(§6) […] In eine der Petri-Schalen wurde Nährboden mit 1 ml Azeton (Kontrolle) gegossen.\n(§7) In 18 bis 20 Stunden nach dem Vergießen des Nährbodens in die Petri-Schalen führte man die Inokulation der reinen Pilzkultur durch, die vorher an einem Schräg-Würzeagar während 15 Tage gezüchtet wurden. Die Inkubation führte man bei einer Temperatur von 25 bis 27°C während 5 Tage durch. Danach wurde der Durchmesser der Pilzkolonien gemessen und der Prozentsatz der Hemmung des Wachstums des Myzeliums (S) nach der Abbott -Formel gezählt: [formula] worin dc Durchmesser der Pilzkolonien in Kontrolle ist, de =Durchmesser der Pilzkolonien in einer Schale mit dem Nährboden ist, der Zink-bis-(N-vinyloxyethyl)dithiocarbamat enthält."}, "[10]": {"system": "Penicillium chrysogenum", "assay": "Fungicidal activity, inhibition of mycelium growth on wort agar", "type": "cell-based", "description": "as §5, §6, §7"}, "[11]": {"system": "Acremonium charticola", "assay": "Fungicidal activity, inhibition of mycelium growth on wort agar", "type": "cell-based", "conditions": "Acremonium charticola, 120 h, read-out: Hemmung des Myzeliums am 5. Tag des Wachstums, Acremonium charticola", "description": "as §5, §6, §7"}, "[12]": {"system": "Cladosporium cladosporioides", "assay": "Fungicidal activity, inhibition of mycelium growth on wort agar", "type": "cell-based", "conditions": "Cladosporium cladosporioides, 120 h, read-out: Hemmung des Myzeliums am 5. Tag des Wachstums, Cladosporium cladosporioides", "description": "as §5, §6, §7"}, "[13]": {"system": "Walrotiela subiculesa", "assay": "Fungicidal activity, inhibition of mycelium growth on wort agar", "type": "cell-based", "conditions": "120 h, read-out: Hemmung des Myzeliums am 5. Tag des Wachstums, Walrotiela subiculesa", "description": "as §5, §6, §7"}, "[14]": {"system": "Geotrichum candidum Link", "assay": "Fungicidal activity, inhibition of mycelium growth on wort agar", "type": "cell-based", "description": "as §5, §6, §7"}, "[15]": {"system": "Oidium", "assay": "Fungicidal activity, inhibition of mycelium growth on wort agar", "type": "cell-based", "description": "as §5, §6, §7"}, "[16]": {"system": "Penicillium charlesii Smith", "assay": "Fungicidal activity, inhibition of mycelium growth on wort agar", "type": "cell-based", "conditions": "Penicillium charlesii, 120 h, read-out: Hemmung des Myzeliums am 5. Tag des Wachstums, Penicillium charlesii Smith", "description": "as §5, §6, §7"}, "[17]": {"system": "Acremonium corvum", "assay": "Fungicidal activity, inhibition of mycelium growth on wort agar", "type": "cell-based", "conditions": "120 h, read-out: Hemmung des Myzeliums am 5. Tag des Wachstums, Acremonium corvum", "description": "as §5, §6, §7"}, "[18]": {"conditions": "Konzentration des Stoffes 0,00075 %"}, "[19]": {"conditions": "Konzentration des Stoffes 0,0015 %"}, "[20]": {"conditions": "Konzentration des Stoffes 0,003 %"}, "[21]": {"conditions": "Konzentration des Stoffes 0,006 %"}, "[22]": {"conditions": "Konzentration des Stoffes 0,012 %"}}}
{"compound": "C=COCCNC(=S)[S-].[K+]", "note": "[Kalium-N-(vinyloxyethyl)dithiocarbamat]", "values": [{"measurement": "Lagerbeständigkeit", "setting": "[1]", "value": "lagerbeständig"}, {"measurement": "Konzentration der Salze der N-(vinyloxyethyl)dithiocarbaminsäure (100%), die das Wachstum der Bakterien am 5. Tag des Wachstums hemmen, p.Bacillus", "setting": "[2]", "value": "0,05%"}, {"measurement": "Konzentration der Salze der N-(vinyloxyethyl)dithiocarbaminsäure (100%), die das Wachstum der Bakterien am 5. Tag des Wachstums hemmen, p. Escherichiae", "setting": "[3]", "value": "0,05%"}, {"measurement": "Konzentration der Salze der N-(vinyloxyethyl)dithiocarbaminsäure (100%), die das Wachstum der Bakterien am 5. Tag des Wachstums hemmen, p.Micrococcus", "setting": "[4]", "value": "0,05%"}, {"measurement": "Konzentration der Salze der N-(vinyloxyethyl)dithiocarbaminsäure (100%), die das Wachstum der Bakterien am 5. Tag des Wachstums hemmen, p.Pseudomonas", "setting": "[5]", "value": "0,05%"}, {"measurement": "Löslichkeit im Alkohol", "setting": "[6]; Alkohol (Ethylalkohol)", "value": "teilweise"}, {"measurement": "Löslichkeit im Azeton", "setting": "[6]; Azeton", "value": "teilweise"}, {"measurement": "Löslichkeit im Diethylether", "setting": "[6]; Diethylether", "value": "unlöslich"}, {"measurement": "Löslichkeit in Wasser", "setting": "[6]; Wasser", "value": "gut löslich"}, {"measurement": "Konzentration, die das Wachstum der Bakterien vollständig hemmte", "setting": "[7]", "value": "0,05%"}, {"measurement": "LD50", "setting": "[8]", "value": "1400 ± 350", "unit": "mg/kg"}, {"measurement": "inhibition of growth", "setting": "[9]; [18]", "value": 70, "unit": "%"}, {"measurement": "inhibition of growth at 0.0015 %", "setting": "[9]; [19]", "value": 100, "unit": "%"}, {"measurement": "inhibition of growth at 0.003 %", "setting": "[9]; [20]", "value": 100, "unit": "%"}, {"measurement": "inhibition of growth at 0.006 %", "setting": "[9]; [21]", "value": 100, "unit": "%"}, {"measurement": "inhibition of growth at 0.012 %", "setting": "[9]; [22]", "value": 100, "unit": "%"}, {"measurement": "Hemmung des Myzeliums am 5. Tag des Wachstums, Penicillium chrysogenum", "setting": "[10]; [19]", "value": 30, "unit": "%"}, {"measurement": "Hemmung des Myzeliums am 5. Tag des Wachstums, Penicillium chrysogenum", "setting": "[10]; [20]", "value": 55, "unit": "%"}, {"measurement": "inhibition of growth at 0.00075 %", "setting": "[10]; Penicillium chrysogenum, 120 h, Konzentration des Stoffes 0,00075 %, read-out: Hemmung des Myzeliums am 5. Tag des Wachstums, Penicillium chrysogenum", "value": 0, "unit": "%"}, {"measurement": "inhibition of growth at 0.006 %", "setting": "[10]; Penicillium chrysogenum, 120 h, Konzentration des Stoffes 0,006 %, read-out: Hemmung des Myzeliums am 5. Tag des Wachstums, Penicillium chrysogenum", "value": 90, "unit": "%"}, {"measurement": "inhibition of growth at 0.012 %", "setting": "[10]; Penicillium chrysogenum, 120 h, Konzentration des Stoffes 0,012 %, read-out: Hemmung des Myzeliums am 5. Tag des Wachstums, Penicillium chrysogenum", "value": 100, "unit": "%"}, {"measurement": "inhibition of growth", "setting": "[11]; [18]", "value": 90, "unit": "%"}, {"measurement": "inhibition of growth at 0.0015 %", "setting": "[11]; [19]", "value": 100, "unit": "%"}, {"measurement": "inhibition of growth at 0.003 %", "setting": "[11]; [20]", "value": 100, "unit": "%"}, {"measurement": "inhibition of growth at 0.006 %", "setting": "[11]; [21]", "value": 100, "unit": "%"}, {"measurement": "inhibition of growth at 0.012 %", "setting": "[11]; [22]", "value": 100, "unit": "%"}, {"measurement": "inhibition of growth", "setting": "[12]; [18]", "value": 100, "unit": "%"}, {"measurement": "inhibition of growth at 0.0015 %", "setting": "[12]; [19]", "value": 100, "unit": "%"}, {"measurement": "inhibition of growth at 0.003 %", "setting": "[12]; [20]", "value": 100, "unit": "%"}, {"measurement": "inhibition of growth at 0.006 %", "setting": "[12]; [21]", "value": 100, "unit": "%"}, {"measurement": "inhibition of growth at 0.012 %", "setting": "[12]; [22]", "value": 100, "unit": "%"}, {"measurement": "inhibition of growth at 0.00075 %", "setting": "[13]; [18]", "value": 90, "unit": "%"}, {"measurement": "inhibition of growth at 0.0015 %", "setting": "[13]; [19]", "value": 100, "unit": "%"}, {"measurement": "inhibition of growth at 0.003 %", "setting": "[13]; [20]", "value": 100, "unit": "%"}, {"measurement": "inhibition of growth at 0.006 %", "setting": "[13]; [21]", "value": 100, "unit": "%"}, {"measurement": "inhibition of growth at 0.012 %", "setting": "[13]; [22]", "value": 100, "unit": "%"}, {"measurement": "inhibition of growth at 0.00075 %", "setting": "[14]; Geotrichum candidum, 120 h, Konzentration des Stoffes 0,00075 %, read-out: Hemmung des Myzeliums am 5. Tag des Wachstums, Geotrichum candidum Link", "value": 10, "unit": "%"}, {"measurement": "inhibition of growth at 0.012 %", "setting": "[14]; Geotrichum candidum, 120 h, Konzentration des Stoffes 0,012 %, read-out: Hemmung des Myzeliums am 5. Tag des Wachstums, Geotrichum candidum Link", "value": 100, "unit": "%"}, {"measurement": "Hemmung des Myzeliums am 5. Tag des Wachstums, Geotrichum candidum Link", "setting": "[14]; [19]", "value": 40, "unit": "%"}, {"measurement": "Hemmung des Myzeliums am 5. Tag des Wachstums, Geotrichum candidum Link", "setting": "[14]; [20]", "value": 100, "unit": "%"}, {"measurement": "Hemmung des Myzeliums am 5. Tag des Wachstums, Geotrichum candidum Link", "setting": "[14]; [21]", "value": 100, "unit": "%"}, {"measurement": "inhibition of growth at 0.00075 %", "setting": "[15]; 120 h, Konzentration des Stoffes 0,00075 %, read-out: Hemmung des Myzeliums am 5. Tag des Wachstums, Oidium", "value": 40, "unit": "%"}, {"measurement": "inhibition of growth at 0.003 %", "setting": "[15]; 120 h, Konzentration des Stoffes 0,003 %, read-out: Hemmung des Myzeliums am 5. Tag des Wachstums, Oidium", "value": 100, "unit": "%"}, {"measurement": "inhibition of growth at 0.006 %", "setting": "[15]; 120 h, Konzentration des Stoffes 0,006 %, read-out: Hemmung des Myzeliums am 5. Tag des Wachstums, Oidium", "value": 100, "unit": "%"}, {"measurement": "inhibition of growth at 0.012 %", "setting": "[15]; 120 h, Konzentration des Stoffes 0,012 %, read-out: Hemmung des Myzeliums am 5. Tag des Wachstums, Oidium", "value": 100, "unit": "%"}, {"measurement": "Hemmung des Myzeliums am 5. Tag des Wachstums, Oidium", "setting": "[15]; [19]", "value": 96, "unit": "%"}, {"measurement": "inhibition of growth", "setting": "[16]; [18]", "value": 5, "unit": "%"}, {"measurement": "inhibition of growth at 0.0015 %", "setting": "[16]; [19]", "value": 30, "unit": "%"}, {"measurement": "inhibition of growth at 0.003 %", "setting": "[16]; [20]", "value": 55, "unit": "%"}, {"measurement": "inhibition of growth at 0.006 %", "setting": "[16]; [21]", "value": 90, "unit": "%"}, {"measurement": "inhibition of growth at 0.012 %", "setting": "[16]; [22]", "value": 100, "unit": "%"}, {"measurement": "inhibition of growth", "setting": "[17]; [18]", "value": 94, "unit": "%"}, {"measurement": "inhibition of growth at 0.0015 %", "setting": "[17]; [19]", "value": 100, "unit": "%"}, {"measurement": "inhibition of growth at 0.003 %", "setting": "[17]; [20]", "value": 100, "unit": "%"}, {"measurement": "inhibition of growth at 0.006 %", "setting": "[17]; [21]", "value": 100, "unit": "%"}, {"measurement": "inhibition of growth at 0.012 %", "setting": "[17]; [22]", "value": 100, "unit": "%"}]}
